One assay has as its system miR-17. As to the kind of experiment: miR-17 luciferase reporter assay in HeLa cells. To be noted: for Luciferase Fold Derepression: mean. The assay is classed as cell-based. As for the experimental part: In vitro potency was evaluated using a luciferase reporter assay. A luciferase reporter plasmid for miR-17, with […] in the 3′-UTR of the luciferase gene. Compounds of longer lengths were selected if their maximum inhibition was greater than that of the tool anti-miR-17 compound. As shorter compounds, such as 9-mers, are typically not maximally active in the same assay conditions used for longer compounds, shorter compounds were selected based on maximum inhibition relative to appropriate control compounds. In this way, compounds that are diverse in both length and chemical composition were included in further testing.
One assay employed was the luciferase assay. […] Accordingly, the luciferase assay transfection conditions were optimized for short anti-miR-17 compounds, so that the inhibitory activity of the compounds could be measured.
The luciferase reporter plasmid for miR-17 contained a fully complementary miR-17 binding site in the 3′-UTR of the luciferase gene. HeLa cells were transfected with the microRNA mimic and its cognate luciferase reporter, followed by transfection with anti-miR-17 at doses of […], 3, 10, 30, 100, and 300 nM. At the end of the 24-hour transfection period, luciferase activity was measured. As shown in Table 2-1, RG4047, while not as potent as RG4326, inhibited miR-17 activity in a dose dependent manner. SD indicates standard deviation.
Additional in vitro assays were conducted to further explore the potency of RG4326. A luciferase reporter assay was used to test the ability of RG4326 to inhibit the miR-17 family members miR-17, miR-20a, miR-93, and miR-106b. A luciferase reporter plasmid for each of miR-20a, miR-93, and miR-106b was constructed, with a fully complementary microRNA binding site in the 3′-UTR of the luciferase gene. HeLa cells were transfected with the microRNA mimic and its cognate luciferase reporter, followed by transfection with anti-miR-17 at a dose of 100 nm. […] As RG4326 is 100% complementary to the other miR-17 family members not tested, miR-20b and […], it is expected to inhibit these microRNAs as well.

The next assay has as its system miR-17 targets. As to the kind of experiment: De-repression of miR-17 targets in kidney cell types (PD Signature Score). The assay is classed as cell-based, mouse. As for the experimental part: The ability of RG4326 to de-repress miR-17 targets was also evaluated in additional kidney cell types, derived from the kidneys of both normal and PKD mice. Cells were treated with 30 nM of RG4326 or control oligonucleotide RG5124. After a 24-hour transfection period, cells were collected and RNA was extracted. The mRNA levels of 18 genes targeted by miR-17 were measured, and averaged to provide a pharmacodynamic signature score (PD Signature Score), represented as Log2 fold-change (Log2FC) relative to mock-transfection. […] “P<0.05” indicates a p-value of less than 0.05, as calculated by one-way ANOVA. “NS” indicates a change that is not statistically significant.

Setting [1] is: 0.001 nM anti-miR-17, 24-hour transfection.
The mark [2] stands for this setting: 3 nM anti-miR-17, 24-hour transfection.
[3] abbreviates: 10 nM anti-miR-17, 24-hour transfection.
[4] abbreviates: 30 nM anti-miR-17, 24-hour transfection.
[5] abbreviates: 100 nM anti-miR-17, 24-hour transfection.
Where [6] appears, read: 300 nM anti-miR-17, 24-hour transfection.
[7] abbreviates: DBA-PKD, Collecting Ducts, PKD kidney.
The mark [8] stands for this setting: DBA-WT, Collecting Ducts, Normal kidney.
Setting [9] is: IMCD3, Collecting Ducts, Normal kidney.
Setting [10] is: LTL-PKD, Proximal Tubules, PKD kidney.
Setting [11] is: LTL-WT, Proximal Tubules, Normal kidney.
Where [12] appears, read: M1, Collecting Ducts, Normal kidney.
[13] abbreviates: MDCT, Distal Tubules, Normal kidney.

On to `COC1C(OP(=O)(S)OC[C@H]2O[C@@H](n3cnc4c(N)ncnc43)C(F)C2OP(=O)(S)OC[C@H]2O[C@@H](n3ccc(N)nc3=O)C(F)C2OP(=O)(S)OC[C@H]2O[C@@H](n3ccc(=O)[nH]c3=O)C(F)C2OP(=O)(S)OC[C@H]2O[C@@H](n3ccc(=O)[nH]c3=O)C(OC)C2OP(=O)(S)OC[C@]23O[C@@H](n4ccc(=O)[nH]c4=O)C(O[C@H]2C)C3OP(=O)(S)OC[C@]23O[C@@H](n4cnc5c(=O)[nH]c(N)nc54)C(O[C@H]2C)C3O)[C@@H](COP(=O)(S)OC2C3O[C@@H](C)[C@]2(COP(=O)(S)OC2C4O[C@@H](C)[C@]2(CO)O[C@H]4n2cnc4c(N)ncnc42)O[C@H]3n2cnc3c(=O)[nH]c(N)nc32)O[C@H]1n1ccc(N)nc1=O` (stereo in doubt) [RG4326, ASGSCMAFCFUFUMUSGS], for which the “Luciferase Fold Derepression” value in the assay on miR-17 (setting [1]) is given as 1; with miR-17 (setting [2]) it was 5.3; with miR-17 (setting [3]), 10.4; in the assay on miR-17 (setting [4]), 14.1; in the assay on miR-17 (setting [5]), 13.9; in the assay with miR-17 (setting [6]), 11.7. Moreover, in the assay on miR-17 (anti-miR-17 at 100 nm), the “Mean luciferase fold derepression, miR-17” value turned out to be 13.1. Further, the “PD-Signature Score (Log2FC @ 30 nM)” value in the assay on miR-17 targets (setting [7]) is 0.52 ± 0.06; p < 0.05 Log2FC; in the assay on miR-17 targets (setting [8]), 0.40 ± 0.09; p < 0.05 Log2FC; with miR-17 targets (setting [9]) it was 0.57 ± 0.06; p < 0.05 Log2FC; in the assay on miR-17 targets (setting [10]), 0.39 ± 0.01; p < 0.05 Log2FC; with miR-17 targets (setting [11]), 0.35 ± 0.02; p < 0.05 Log2FC; in the assay with miR-17 targets (setting [12]), 0.18 ± 0.18; p < 0.05 Log2FC. Moreover, the “PD-Signature Score (Log2FC @ 30 nM)” value with miR-17 targets (setting [13]) is 0.10 ± 0.01; p < 0.05 Log2FC.
As for “ASCSAMAFUFGFCMASCS [RG5124, reference compound]”, the “Luciferase Fold Derepression” value with miR-17 (setting [1]) was 1; in the assay with miR-17 (setting [2]), 1.2; with miR-17 (setting [3]) it was 2.6; in the assay on miR-17 (setting [4]), 1; with miR-17 (setting [5]) it was 0.7; with miR-17 (setting [6]), 1. For the same compound, the “PD-Signature Score (Log2FC @ 30 nM)” value in the assay with miR-17 targets (setting [7]) is listed as −0.07 ± 0.02; ns Log2FC; in the assay with miR-17 targets (setting [8]), 0.10 ± 0.05; ns Log2FC; in the assay with miR-17 targets (setting [9]) it was −0.03 ± 0.05; ns Log2FC; in the assay with miR-17 targets (setting [10]) it was −0.03 ± 0.04; ns Log2FC; in the assay on miR-17 targets (setting [11]) it was −0.04 ± 0.02; ns Log2FC; in the assay on miR-17 targets (setting [12]), −0.08 ± 0.02; ns Log2FC. Moreover, in the assay on miR-17 targets (setting [13]), the “PD-Signature Score (Log2FC @ 30 nM)” value was 0.03 ± 0.01; ns Log2FC.

Source of the values: patent publication US20250333745A1, “METHODS AND COMPOSITIONS FOR TREATMENT OF POLYCYSTIC KIDNEY DISEASE” (Regulus Therapeutics Inc., priority 2016, published 2025).
